Reference: ChEMBL document CHEMBL3885881, “DrugMatrix”

Organism: Rattus norvegicus
Test: DrugMatrix - Regimen: Daily Repeat
Format: toxicity, organism-based, Sprague-Dawley
Design: regimen Daily Repeat, gender Male, age 6-8 weeks
Conditions: in vivo, po, route oral GAVAGE, vehicle .5 % CMC; for ABSOLUTE BASOPHIL / ABSOLUTE EOSINOPHIL / ABSOLUTE LYMPHOCYTE / ABSOLUTE MONOCYTE / ABSOLUTE SEGMENTED NEUTROPHIL / BASOPHIL / EOSINOPHIL / ERYTHROCYTE COUNT / HEMATOCRIT / HEMOGLOBIN / LEUKOCYTE COUNT / LYMPHOCYTE / MEAN CORPUSCULAR HEMOGLOBIN / MEAN CORPUSCULAR HEMOGLOBIN CONCENTRATION / MEAN CORPUSCULAR VOLUME / MONOCYTE / NEUTROPHIL / NUCLEATED RED BLOOD CELLS / PLATELET COUNT: tissue Blood; for ALANINE AMINOTRANSFERASE / ALBUMIN / ALKALINE PHOSPHATASE / ASPARTATE AMINOTRANSFERASE / BLOOD UREA NITROGEN / CARBON DIOXIDE / CHLORIDE / CHOLESTEROL / CREATINE PHOSPHOKINASE / CREATININE / GLUCOSE / LACTATE DEHYDROGENASE / LIPASE / PHOSPHORUS / POTASSIUM / SODIUM / TOTAL BILIRUBIN / TOTAL PROTEIN / URIC ACID: tissue Plasma
[1] = 3 mg/kg, 120 h, dose level Low, time 5 day
[2] = 30 mg/kg, 72 h, dose level High, time 3 day
[3] = 30 mg/kg, 120 h, dose level High, time 5 day

SMILES: CC(=O)Nc1ccc2c(c1)Cc1ccccc1-2 [2-ACETYLAMINOFLUORENE]
- ABSOLUTE BASOPHIL [1]: 0 CELLS/uL
- ABSOLUTE EOSINOPHIL [1]: 0 CELLS/uL
- ABSOLUTE LYMPHOCYTE [1]: 14012 CELLS/uL
- ABSOLUTE MONOCYTE [1]: 174.33 CELLS/uL
- ABSOLUTE SEGMENTED NEUTROPHIL [1]: 1113.67 CELLS/uL
- BASOPHIL [1]: 0%
- EOSINOPHIL [1]: 0%
- ERYTHROCYTE COUNT [1]: 5.69 x10E6/uL
- HEMATOCRIT [1]: 34.77%
- HEMOGLOBIN [1]: 13.53 G/DL
- LEUKOCYTE COUNT [1]: 15.3 x10E3/uL
- LYMPHOCYTE [1]: 92%
- MEAN CORPUSCULAR HEMOGLOBIN [1]: 23.73 pg
- MEAN CORPUSCULAR HEMOGLOBIN CONCENTRATION [1]: 39 G/DL
- MEAN CORPUSCULAR VOLUME [1]: 61 fL
- MONOCYTE [1]: 1%
- NEUTROPHIL [1]: 7%
- NUCLEATED RED BLOOD CELLS [1]: 0 /100WBC
- PLATELET COUNT [1]: 1174.67 x10E3/uL
- ALANINE AMINOTRANSFERASE [1]: 51 u/L
- ALBUMIN [1]: 4.03 G/DL
- ALKALINE PHOSPHATASE [1]: 355 u/L
- ASPARTATE AMINOTRANSFERASE [1]: 106.67 u/L
- BLOOD UREA NITROGEN [1]: 16.67 mg/dL
- CARBON DIOXIDE [1]: 29.67 mmol/L
- CHLORIDE [1]: 98 MEQ/L
- CHOLESTEROL [1]: 70.67 mg/dL
- CREATINE PHOSPHOKINASE [1]: 459.33 u/L
- CREATININE [1]: 0.16 mg/dL
- GLUCOSE [1]: 147 mg/dL
- LACTATE DEHYDROGENASE [1]: 770.33 u/L
- LIPASE [1]: 9.67 u/L
- PHOSPHORUS [1]: 11.37 mg/dL
- POTASSIUM [1]: 6.6 MEQ/L
- SODIUM [1]: 139.93 MEQ/L
- TOTAL BILIRUBIN [1]: 0.23 mg/dL
- TOTAL PROTEIN [1]: 5.9 G/DL
- URIC ACID [1]: 1.5 mg/dL
- ABSOLUTE BASOPHIL [2]: 0 CELLS/uL
- ABSOLUTE EOSINOPHIL [2]: 86 CELLS/uL
- ABSOLUTE LYMPHOCYTE [2]: 12836 CELLS/uL
- ABSOLUTE MONOCYTE [2]: 177.33 CELLS/uL
- ABSOLUTE SEGMENTED NEUTROPHIL [2]: 1034 CELLS/uL
- BASOPHIL [2]: 0%
- EOSINOPHIL [2]: 0.67%
- ERYTHROCYTE COUNT [2]: 5.86 x10E6/uL
- HEMATOCRIT [2]: 36.83%
- HEMOGLOBIN [2]: 14.6 G/DL
- LEUKOCYTE COUNT [2]: 14.13 x10E3/uL
- LYMPHOCYTE [2]: 90.67%
- MEAN CORPUSCULAR HEMOGLOBIN [2]: 24.9 pg
- MEAN CORPUSCULAR HEMOGLOBIN CONCENTRATION [2]: 39.6 G/DL
- MEAN CORPUSCULAR VOLUME [2]: 62.87 fL
- MONOCYTE [2]: 1.33%
- NEUTROPHIL [2]: 7.33%
- NUCLEATED RED BLOOD CELLS [2]: 0 /100WBC
- PLATELET COUNT [2]: 1279.33 x10E3/uL
- ALANINE AMINOTRANSFERASE [2]: 53.67 u/L
- ALBUMIN [2]: 3.73 G/DL
- ALKALINE PHOSPHATASE [2]: 368.67 u/L
- ASPARTATE AMINOTRANSFERASE [2]: 126.33 u/L
- BLOOD UREA NITROGEN [2]: 15 mg/dL
- CARBON DIOXIDE [2]: 22.67 mmol/L
- CHLORIDE [2]: 102 MEQ/L
- CHOLESTEROL [2]: 53 mg/dL
- CREATINE PHOSPHOKINASE [2]: 1143.67 u/L
- CREATININE [2]: 0.21 mg/dL
- GLUCOSE [2]: 158.67 mg/dL
- LACTATE DEHYDROGENASE [2]: 858.33 u/L
- LIPASE [2]: 10.33 u/L
- PHOSPHORUS [2]: 10.73 mg/dL
- POTASSIUM [2]: 6.07 MEQ/L
- SODIUM [2]: 142.33 MEQ/L
- TOTAL BILIRUBIN [2]: 0.2 mg/dL
- TOTAL PROTEIN [2]: 5.3 G/DL
- URIC ACID [2]: 1.47 mg/dL
- ABSOLUTE BASOPHIL [3]: 0 CELLS/uL
- ABSOLUTE EOSINOPHIL [3]: 0 CELLS/uL
- ABSOLUTE LYMPHOCYTE [3]: 17906.67 CELLS/uL
- ABSOLUTE MONOCYTE [3]: 125.33 CELLS/uL
- ABSOLUTE SEGMENTED NEUTROPHIL [3]: 368 CELLS/uL
- BASOPHIL [3]: 0%
- EOSINOPHIL [3]: 0%
- ERYTHROCYTE COUNT [3]: 6.43 x10E6/uL
- HEMATOCRIT [3]: 39.07%
- HEMOGLOBIN [3]: 15.4 G/DL
- LEUKOCYTE COUNT [3]: 18.4 x10E3/uL
- LYMPHOCYTE [3]: 97.33%
- MEAN CORPUSCULAR HEMOGLOBIN [3]: 24 pg
- MEAN CORPUSCULAR HEMOGLOBIN CONCENTRATION [3]: 39.43 G/DL
- MEAN CORPUSCULAR VOLUME [3]: 60.83 fL
- MONOCYTE [3]: 0.67%
- NEUTROPHIL [3]: 2%
- NUCLEATED RED BLOOD CELLS [3]: 0 /100WBC
- PLATELET COUNT [3]: 1336 x10E3/uL
- ALANINE AMINOTRANSFERASE [3]: 44 u/L
- ALBUMIN [3]: 3.8 G/DL
- ALKALINE PHOSPHATASE [3]: 317.33 u/L
- ASPARTATE AMINOTRANSFERASE [3]: 100.33 u/L
- BLOOD UREA NITROGEN [3]: 20.33 mg/dL
- CARBON DIOXIDE [3]: 27.33 mmol/L
- CHLORIDE [3]: 104.33 MEQ/L
- CHOLESTEROL [3]: 46.67 mg/dL
- CREATINE PHOSPHOKINASE [3]: 551.33 u/L
- CREATININE [3]: 0.22 mg/dL
- GLUCOSE [3]: 146.33 mg/dL
- LACTATE DEHYDROGENASE [3]: 501 u/L
- LIPASE [3]: 9.33 u/L
- PHOSPHORUS [3]: 11.33 mg/dL
- POTASSIUM [3]: 6.51 MEQ/L
- SODIUM [3]: 146.97 MEQ/L
- TOTAL BILIRUBIN [3]: 0.17 mg/dL
- TOTAL PROTEIN [3]: 5.4 G/DL
- URIC ACID [3]: 1.93 mg/dL
